Assay results as given in patent publication US10363251B2, “(+)-morphinans as antagonists of toll-like receptor 9 and therapeutic uses thereof” (Mallinckrodt LLC, priority 2009, dated 2019).

Biological target: T1, TLR9 (Homo sapiens, UniProt Q9NR96)
T1 construct: expressed in transfected cells; host or cells: HEK293
T1 sequence (Q9NR96 26-1032): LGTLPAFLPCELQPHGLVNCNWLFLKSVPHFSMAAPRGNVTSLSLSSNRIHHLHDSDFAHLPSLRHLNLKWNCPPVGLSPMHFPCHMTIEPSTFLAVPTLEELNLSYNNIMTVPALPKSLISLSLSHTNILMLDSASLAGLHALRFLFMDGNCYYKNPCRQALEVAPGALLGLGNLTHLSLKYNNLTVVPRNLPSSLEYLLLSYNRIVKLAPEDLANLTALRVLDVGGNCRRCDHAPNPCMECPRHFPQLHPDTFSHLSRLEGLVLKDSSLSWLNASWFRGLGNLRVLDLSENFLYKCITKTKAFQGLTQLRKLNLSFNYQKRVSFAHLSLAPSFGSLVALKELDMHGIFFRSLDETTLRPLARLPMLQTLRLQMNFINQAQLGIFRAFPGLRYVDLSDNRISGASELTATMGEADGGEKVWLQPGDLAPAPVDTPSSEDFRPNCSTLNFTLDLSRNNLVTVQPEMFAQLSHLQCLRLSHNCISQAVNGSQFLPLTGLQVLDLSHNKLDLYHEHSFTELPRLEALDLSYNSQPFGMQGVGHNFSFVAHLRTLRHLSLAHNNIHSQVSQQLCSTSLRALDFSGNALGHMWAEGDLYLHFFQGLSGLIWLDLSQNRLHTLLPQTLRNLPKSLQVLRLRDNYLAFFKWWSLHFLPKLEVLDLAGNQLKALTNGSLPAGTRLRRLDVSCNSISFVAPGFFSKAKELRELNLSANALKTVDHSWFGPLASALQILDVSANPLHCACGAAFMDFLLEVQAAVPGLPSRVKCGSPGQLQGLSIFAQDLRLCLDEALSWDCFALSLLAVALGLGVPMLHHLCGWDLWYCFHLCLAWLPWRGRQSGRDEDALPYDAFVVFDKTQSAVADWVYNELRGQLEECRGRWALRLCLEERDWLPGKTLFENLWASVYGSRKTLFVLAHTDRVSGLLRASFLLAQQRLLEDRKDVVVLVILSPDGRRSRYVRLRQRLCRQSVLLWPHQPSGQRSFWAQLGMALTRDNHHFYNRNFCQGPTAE
Assay: TLR9 screening of (+)-morphinan library, SEAP reporter in HEK293 cells expressing TLR9
Format: cell-based
Details: activator ODN2006; for OD 650 nm (mean ± sd): control (no activator) 0.14, activator 1.42 OD; for inhibition at 0.1 µM: HEK293, read-out: % Inhibition (mean), 100 nM; for inhibition at 10 µM: HEK293, read-out: % Inhibition (mean), 10 μM
Procedure: The secreted alkaline phosphatase reporter is under the control of a promoter inducible by the transcription factor NF-κB. A library of more than 100 (+)-morphinan compounds was screened for TLR9 antagonist activity by assessing NF-κB activation in the HEK293 cells expressing TLR9. This reporter gene allows the monitoring of signaling through the TLR, based on the activation of NF-κB.
In a 96-well plate (200 μL total volume) containing 50,000 cells/well, 20 μL of each sample compound was added to wells, in triplicate, followed by a 30 minute incubation at 37° C. and 5% CO2. After the 30 minutes of incubation, 20 μL of the activator ODN2006 was added to each well. The media added to the wells was designed for the detection of NF-κB induced SEAP expression. After a 16-20 hr incubation period, the OD at 650 nm was read on a Beckman Coulter AD 340C Absorbance Detector. All compounds were tested at concentrations of 10 μM and 100 nM.

SMILES	OD 650 nm (mean ± sd) (100 nM)	OD 650 nm (mean ± sd) (10 μM)	inhibition at 0.1 µM	inhibition at 10 µM	% Inhibition (mean) (100 nM, 0.1 µM)	% Inhibition (mean) (10 μM)
COc1ccc2c3c1OC1C(OC(C)=O)CCC4C(C2)N(C)CC[C@]341 (stereo partly shown) [II-8]	1.15 ± 0.07 OD	1.33 ± 0.06 OD	19%	7%		
COc1ccc2c3c1O[C@@H]1C(NC(C)=O)CC[C@@H]4[C@H](C2)N(C)CC[C@@]314 (stereo partly shown) [II-9]	1.25 ± 0.09 OD	1.00 ± 0.02 OD	12%	29%		
COc1ccc2c3c1O[C@@H]1C(NCCO)CC[C@@H]4[C@H](C2)N(C)CC[C@@]314 (stereo partly shown) [II-10]	0.24 ± 0.02 OD	0.10 ± 0.01 OD	83%	93%		
COc1cc(Br)c2c3c1OC1C(=O)CC[C@@H]4[C@H](C2)N(C)CC[C@@]314 (stereo partly shown) [II-11]	1.22 ± 0.10 OD	0.44 ± 0.05 OD	14%	69%		
COc1ccc2c3c1O[C@@H]1C(=O)CC[C@@H]4[C@H](C2)NCC[C@@]314 [II-12]	1.12 ± 0.08 OD	0.81 ± 0.03 OD	21%	43%		
COC(=O)/C=C/c1cc(OC)c(O)c2c1CC1C3CCC(=O)C[C@@]23CCN1CC1CC1 (stereo partly shown) [II-14]	1.18 ± 0.05 OD	0.13 ± 0.00 OD	17%	91%		
COC(=O)/C=C/c1cc(OC)c2c3c1CC1C4CCC(=O)[C@@H](O2)[C@@]34CCN1CC1CC1 (stereo partly shown) [II-15]	1.22 ± 0.06 OD	0.23 ± 0.03 OD	14%	84%		
C=CCN1CC[C@@]23c4c5c(Br)cc(OC)c4O[C@@H]2C(=O)CCC3C1C5 (stereo partly shown) [II-16]	1.43 ± 0.01 OD	1.24 ± 0.11 OD	-1%	13%		
COc1ccc2c3c1O[C@@H]1C(O)CC[C@@H]4[C@H](C2)N(CC2CC2)CC[C@@]314 (stereo partly shown) [II-17]	1.13 ± 0.10 OD	0.39 ± 0.01 OD	21%	72%		
C=CCN1CC[C@@]23c4c5ccc(OC)c4OC2C(O)CCC3C1C5 (stereo partly shown) [II-19]	1.19 ± 0.03 OD	0.15 ± 0.01 OD	16%	90%		
C=CCN1CC[C@@]23c4c5ccc(OC)c4O[C@@H]2C(NC(C)=O)CC[C@@H]3[C@@H]1C5 (stereo partly shown) [II-20]	1.29 ± 0.02 OD	1.07 ± 0.04 OD	9%	25%		
C=CCN1CC[C@@]23c4c5ccc(OC)c4O[C@@H]2C(=C)CC[C@@H]3[C@@H]1C5 [II-22]	1.31 ± 0.19 OD	0.75 ± 0.06 OD	8%	47%		
COc1cc(Br)c2c3c1O[C@@H]1C(=O)CCC4C(C2)N(CC2CC2)CC[C@]341 (stereo partly shown) [II-23]	1.16 ± 0.01 OD	0.53 ± 0.05 OD	18%	63%		
COc1cc(-c2ccoc2)c2c3c1O[C@@H]1C(=O)CCC4C(C2)N(CC2CC2)CC[C@]341 (stereo partly shown) [II-26]	1.08 ± 0.06 OD	0.12 ± 0.00 OD	24%	92%		
COc1ccc2c3c1O[C@@H]1C(O)CC[C@@H]4[C@H](C2)N(CC2CCC2)CC[C@@]314 (stereo partly shown) [II-28]	1.32 ± 0.08 OD	0.87 ± 0.03 OD	7%	39%		
COc1ccc2c3c1O[C@@H]1C(=O)CC[C@@H]4[C@H](C2)N(Cc2ccccc2)CC[C@@]314 [II-29]	1.36 ± 0.17 OD	0.33 ± 0.03 OD	4%	77%		

SMILES	OD 650 nm (mean ± sd) (100 nM)	OD 650 nm (mean ± sd) (10 μM)	inhibition at 0.1 µM	inhibition at 10 µM	% Inhibition (mean) (100 nM, 0.1 µM)	% Inhibition (mean) (10 μM)
COc1ccc2c3c1O[C@@H]1C(=O)CC[C@@H]4[C@H](C2)N(C(=O)C2CC2)CC[C@@]314 [II-30]	1.34 ± 0.11 OD	1.13 ± 0.06 OD			5%	20%
COc1ccc2c3c1O[C@@H]1C(=O)CC[C@@H]4[C@H](C2)N(C(C)=O)CC[C@@]314 [II-31]	1.40 ± 0.04 OD	1.37 ± 0.11 OD	2%	3%		
COc1ccc2c3c1O[C@@H]1C(=O)CC[C@@H]4[C@H](C2)N(C(=O)c2ccccc2)CC[C@@]314 [II-33]	1.35 ± 0.15 OD	1.37 ± 0.03 OD	5%	3%		
COC1=CC=C2[C@@H]3Cc4ccc(OC)c5c4[C@]2(CCN3C)[C@@H]1O5 [II-34]	1.39 ± 0.05 OD	0.94 ± 0.08 OD	2%	34%		
C=CCN1CC[C@]23C4=CC=C(OC)[C@H]2Oc2c(OC)ccc(c23)C[C@@H]41 [II-35]	1.04 ± 0.08 OD	0.34 ± 0.03 OD	27%	76%		
COC1=CC=C2[C@@H]3Cc4ccc(OC)c5c4[C@]2(CCN3CC2CC2)[C@@H]1O5 [II-36]	1.14 ± 0.02 OD	0.14 ± 0.01 OD	20%	90%		
COC1=CC=C2[C@@H]3Cc4ccc(OC)c5c4[C@]2(CCN3CC2CCC2)[C@@H]1O5 [II-37]	1.13 ± 0.07 OD	0.18 ± 0.06 OD	20%	87%		
COc1ccc2c3c1O[C@@H]1C(=O)CC[C@]4(O)[C@H](C2)N(C)CC[C@@]314 [II-39]	1.23 ± 0.03 OD	1.06 ± 0.06 OD	14%	25%		
COc1ccc2c3c1O[C@@H]1C(O)CC[C@]4(O)[C@H](C2)N(C)CC[C@@]314 (stereo partly shown) [II-40]	1.41 ± 0.13 OD	1.37 ± 0.07 OD	0%	4%		
C=C1CC[C@]2(O)[C@@H]3Cc4ccc(OC)c5c4[C@]2(CCN3C)[C@@H]1O5 [II-41]	1.27 ± 0.03 OD	1.02 ± 0.09 OD	11%	28%		
COc1ccc2c3c1O[C@@H]1C(NC(C)=O)CC[C@]4(O)[C@H](C2)N(C)CC[C@@]314 (stereo partly shown) [II-42]	1.00 ± 0.03 OD	0.14 ± 0.02 OD	29%	90%		
COc1ccc2c3c1O[C@@H]1C(N)CC[C@]4(O)[C@H](C2)N(C)CC[C@@]314 (stereo partly shown) [II-43]	0.10 ± 0.01 OD	0.09 ± 0.00 OD	93%	94%		
COc1ccc2c3c1O[C@@H]1CCC[C@]4(O)[C@H](C2)N(C)CC[C@@]314 [II-44]	1.18 ± 0.02 OD	1.03 ± 0.12 OD	17%	27%		
COc1ccc2c3c1O[C@@H]1[C@@H]4CCC5(O4)[C@H](C2)N(C)CC[C@@]315 [II-46]	1.24 ± 0.02 OD	1.30 ± 0.02 OD	13%	8%		
C=CCN1CC[C@@]23c4c5ccc(OC)c4O[C@@H]2C(=O)CC[C@]3(O)[C@@H]1C5 [II-47]	1.18 ± 0.13 OD	0.78 ± 0.07 OD	17%	45%		
